Data on eleven molecules can be found in ChEMBL document CHEMBL1201862, “PubChem BioAssay data set” (2004).

Among the test systems are EKVX; HCT-15; HOP-62; HOP-92; Hs-578T; IGROV-1; MDA-N; NCI-H226; NCI-H460; NCI/ADR-RES; OVCAR-4; SF-268; SF-539; SK-MEL-28; SK-MEL-5; SN12C; SW-620; TK-10; U-251; RXF 393.
Common to all, as to test: inhibition of tumour cell growth, NCI panel, 48 h

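Five concentrations, 48 hours, 96-well plates. The concentration for 50% growth inhibition is given as GI50.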 The source made the active and inactive calls. No stated cut-off is given here; in the data, active = GI50 up to about 1.1 µM and inactive = higher.

As for `CCCCC1C=Cn2c(=O)oc3c(OC(C)C)c(C)c(O)c1c32` (centres undefined), the GI50 with EKVX was 2.48 µM (inactive); in the assay on HCT-15, 0.357 µM; in the assay on HOP-62 it was 0.0497 µM (active); with HOP-92, 3.05 µM (inactive); in the assay with Hs-578T, 0.684 µM (active); in the assay with IGROV-1, 1.88 µM (inactive). The GI50 with MDA-N was 2.37 µM (inactive); in the assay on NCI-H226, 1.63 µM (inactive); in the assay on NCI-H460, 0.652 µM (active); with NCI/ADR-RES it was 0.993 µM (active); with OVCAR-4, 0.601 µM (active); in the assay on SF-268, 0.796 µM (active). The GI50 in the assay with SF-539 is 2.49 µM (inactive); in the assay on SK-MEL-28 it was 1.19 µM (inactive); in the assay on SK-MEL-5, 2 µM (inactive); in the assay with SN12C it was 1.37 µM (inactive); with SW-620, 0.904 µM (active); with TK-10, 5.52 µM (inactive). For the same molecule, the GI50 with U-251 was 1.14 µM (inactive).

With `COc1ccc(C2CC(=O)Oc3ccccc3O2)cc1` (centres undefined), the GI50 with EKVX was > 100 µM (inactive); in the assay on HCT-15, greater than 100 µM; in the assay on HOP-62 it was > 100 µM (inactive); in the assay with Hs-578T, 66.7 µM (inactive); with IGROV-1, > 100 µM (inactive); in the assay on MDA-N, 98.2 µM (inactive). Further, the GI50 with NCI-H226, in the assay with NCI-H460, in the assay on NCI/ADR-RES, in the assay on OVCAR-4, in the assay on RXF 393 and with SF-268 was > 100 µM (inactive) in each case. In addition, the GI50 in the assay on SF-539, in the assay with SK-MEL-28, with SK-MEL-5, in the assay on SN12C, in the assay on SW-620 and in the assay with TK-10 was > 100 µM (inactive) each time. In addition, the GI50 in the assay on U-251 is > 100 µM (inactive).

For `CN1CCCCC(C#N)(c2ccccc2)CC1` (centres undefined), the GI50 is > 100 µM (inactive) in the assay with EKVX; greater than 100 µM in the assay with HCT-15; > 100 µM (inactive) with HOP-62; > 100 µM (inactive) in the assay with HOP-92; > 100 µM (inactive) with Hs-578T; > 100 µM (inactive) with IGROV-1. The GI50 in the assay on MDA-N, in the assay on NCI-H460, in the assay on NCI/ADR-RES, in the assay on OVCAR-4, with RXF 393 and with SF-268 was > 100 µM (inactive) in each case. The GI50 in the assay with SK-MEL-28, in the assay on SK-MEL-5, with SW-620, in the assay with TK-10 and in the assay with U-251 was > 100 µM (inactive) each time.

Regarding `COC(=O)c1ccc(Nc2nc3[nH]cnc3c(=O)[nH]2)cc1`, the GI50 with EKVX was > 100 µM (inactive); with HCT-15, greater than 100 µM; with HOP-62, > 100 µM (inactive); with HOP-92 it was > 100 µM (inactive); with Hs-578T it was > 100 µM (inactive); in the assay on IGROV-1 it was > 100 µM (inactive). Besides, the GI50 was 32.9 µM (inactive) with MDA-N; > 100 µM (inactive) with NCI-H226; > 100 µM (inactive) in the assay with NCI-H460; > 100 µM (inactive) with NCI/ADR-RES; > 100 µM (inactive) with OVCAR-4; 94 µM (inactive) in the assay with SF-268. The GI50 is 67.3 µM (inactive) in the assay with SF-539; > 100 µM (inactive) in the assay on SK-MEL-28; > 100 µM (inactive) in the assay on SK-MEL-5; > 100 µM (inactive) in the assay on SN12C; > 100 µM (inactive) in the assay on SW-620; > 100 µM (inactive) in the assay with TK-10. Also, in the assay with U-251, the GI50 was > 100 µM (inactive).

As for `CN(C)CCN1C(=O)N(CCN(C)C)c2c3cc(O)ccc3nc3c([N+](=O)[O-])ccc1c23`, the GI50 with HCT-15 was 6.52 µM; in the assay on HOP-92, 15.3 µM (inactive); with Hs-578T it was 16.9 µM (inactive); in the assay with IGROV-1 it was 2.81 µM (inactive); with MDA-N, 13 µM (inactive); with NCI-H226, 12.6 µM (inactive). Also, the GI50 in the assay with NCI-H460 is 3.63 µM (inactive); with NCI/ADR-RES, 19.4 µM (inactive); in the assay with OVCAR-4, 9.66 µM (inactive); in the assay on SF-268, 8.47 µM (inactive); with SK-MEL-28 it was 25.3 µM (inactive); in the assay with SK-MEL-5, 13.7 µM (inactive). For the same molecule, the GI50 in the assay with SN12C was 9.2 µM (inactive); with SW-620 it was 4.92 µM (inactive); in the assay on TK-10 it was 10.6 µM (inactive); in the assay on U-251, 9.93 µM (inactive).

With `COc1ccc(OC)c(NCC(=O)Nn2cnc3ccc(S(=O)(=O)Nc4cc(OC)ccc4OC)cc3c2=O)c1`, the GI50 was > 100 µM (inactive) in the assay on EKVX; greater than 100 µM in the assay with HCT-15; > 100 µM (inactive) with HOP-62; > 100 µM (inactive) in the assay on HOP-92; > 100 µM (inactive) in the assay with Hs-578T; > 100 µM (inactive) in the assay with IGROV-1. In addition, the GI50 was 41.3 µM (inactive) in the assay with MDA-N; > 100 µM (inactive) with NCI-H226; 86.3 µM (inactive) with NCI-H460; > 100 µM (inactive) in the assay on NCI/ADR-RES; > 100 µM (inactive) in the assay with OVCAR-4; > 100 µM (inactive) with SF-268. The GI50 in the assay on SF-539, in the assay with SK-MEL-28, with SN12C, in the assay on SW-620, with TK-10 and with U-251 was > 100 µM (inactive) throughout.

Turning to `CCc1cc(O)c(Cl)c(C)c1Cl`, the GI50 was 11.9 µM (inactive) in the assay on EKVX; 17.4 µM in the assay with HCT-15; 18.7 µM (inactive) with HOP-62; 12.8 µM (inactive) in the assay on HOP-92; 17.8 µM (inactive) in the assay on Hs-578T; 18.6 µM (inactive) in the assay on IGROV-1. The GI50 was 16.3 µM (inactive) with MDA-N; 15.6 µM (inactive) in the assay with NCI-H460; 21.7 µM (inactive) with NCI/ADR-RES; 15.1 µM (inactive) in the assay with OVCAR-4; 14.1 µM (inactive) in the assay with RXF 393; 20.9 µM (inactive) in the assay on SF-268. Besides, the GI50 in the assay on SF-539 is 18.2 µM (inactive); in the assay with SK-MEL-28, 19.5 µM (inactive); with SK-MEL-5, 17.5 µM (inactive); in the assay with SN12C, 15.6 µM (inactive); with SW-620, 21.9 µM (inactive); in the assay with TK-10 it was 18.2 µM (inactive). Besides, in the assay on U-251, the GI50 was 18 µM (inactive).

Turning to `O=C(O)Cn1ncn(NC(=O)Cc2ccccc2)c1=S`, the GI50 with EKVX is > 10 µM (inactive); with HCT-15, greater than 10 µM; in the assay with HOP-62, > 10 µM (inactive); with HOP-92, > 10 µM (inactive); with Hs-578T it was > 10 µM (inactive); with IGROV-1, > 10 µM (inactive). Further, the GI50 with MDA-N, in the assay on NCI-H460, in the assay on NCI/ADR-RES, with OVCAR-4, with SF-268 and in the assay on SF-539 was > 10 µM (inactive) each time. The GI50 with SK-MEL-28, in the assay on SK-MEL-5, in the assay with SN12C, in the assay on SW-620, with TK-10 and in the assay on U-251 was > 10 µM (inactive) throughout.

`C=CC1ON(Cc2ccccc2)CCc2cc(OC)c(OC)cc21` (centres undefined): the GI50 in the assay with EKVX was 63.4 µM (inactive); in the assay on HCT-15, 48.2 µM; in the assay on HOP-62 it was 85.5 µM (inactive); with HOP-92, 46.5 µM (inactive); in the assay with Hs-578T, > 100 µM (inactive); in the assay on IGROV-1 it was 78 µM (inactive). The GI50 in the assay on MDA-N is 29 µM (inactive); in the assay with NCI-H226, > 100 µM (inactive); with NCI-H460, 57 µM (inactive); in the assay on NCI/ADR-RES it was 45.5 µM (inactive); with SF-268 it was 46.6 µM (inactive); in the assay with SF-539 it was 83.4 µM (inactive). Moreover, the GI50 in the assay with SK-MEL-28 is 36.9 µM (inactive); in the assay on SK-MEL-5 it was 16.1 µM (inactive); in the assay with SN12C, 77.4 µM (inactive); in the assay with SW-620, 44.9 µM (inactive); with TK-10 it was > 100 µM (inactive); in the assay on U-251 it was 66.5 µM (inactive).

With `CC1=CCC(=O)[C@]2(C)C(CC(=O)O)[C@]3(C)C4=C(C)C(c5ccoc5)C[C@@H]4O[C@@H]3[C@H](O)[C@@H]12` (some centres undefined), the GI50 in the assay with EKVX was > 100 µM (inactive); with HCT-15, greater than 100 µM; with HOP-92, > 100 µM (inactive); in the assay on Hs-578T, > 100 µM (inactive); in the assay on IGROV-1 it was > 100 µM (inactive); in the assay with MDA-N, > 100 µM (inactive). For the same molecule, the GI50 in the assay with NCI-H460, in the assay with NCI/ADR-RES, in the assay on OVCAR-4, with SF-268, in the assay on SF-539 and in the assay on SK-MEL-28 was > 100 µM (inactive) each time. The GI50 in the assay with SK-MEL-5, in the assay on SN12C, with SW-620, with TK-10 and in the assay with U-251 was > 100 µM (inactive) each time.

Consider `CC1C2Cc3ccc(O)cc3C1(C)CCN2C` (centres undefined), for which the GI50 in the assay with EKVX is > 100 µM (inactive); in the assay with HCT-15, greater than 100 µM; in the assay with HOP-62, > 100 µM (inactive); in the assay with Hs-578T, > 100 µM (inactive); in the assay with IGROV-1 it was > 100 µM (inactive); in the assay on MDA-N, > 100 µM (inactive). Moreover, the GI50 in the assay with NCI-H226, in the assay on NCI-H460, with NCI/ADR-RES, in the assay on OVCAR-4, in the assay on RXF 393 and in the assay on SF-268 was > 100 µM (inactive) in each case. The GI50 with SF-539, with SK-MEL-28, in the assay with SK-MEL-5, in the assay on SN12C, in the assay on SW-620 and with TK-10 was > 100 µM (inactive) in each case. For the same molecule, the GI50 in the assay on U-251 was > 100 µM (inactive).
